# Test: Gastrointestinal absorption of insulin, rat intestinal loop, plasma glucose (Experiment 1)
# Assay type: in vivo, Wistar male rats
# Protocol: Then 0.25 ml blood was collected from the jugular vein 0, 0.5, 1, 1.5, 2 and 3 hours after administration and the plasma glucose concentration was determined. The reduction in the plasma glucose concentration (D, % of initial*h) up to three hours after administration was calculated with the plasma glucose concentration before administration being 100. D was calculated by subtracting the plasma glucose area under concentration (% of initial*h) up to 3 hours after administration from the AUC with administration of normal saline only.
# On the other hand, by way of comparison, a liquid of 6 mg bovine insulin dissolved in 20 ml normal saline liquid was administered to a large intestine loop in an amount corresponding to 600 μg/kg insulin, or as the control, 2 ml normal saline were administered to a large intestine loop and the plasma glucose concentration was determined as described above (Glucose CII Test Wako, Wako Pure Chemical Industries, Ltd.).
substance,measurement,setting,value
"Comparison (E-SD not administered): 6 mg bovine insulin dissolved in 20 ml normal saline, without E-SD",AUC (plasma glucose),"rat intestinal loop, up to 3 hours after administration",368.84 ± 63.19 % of initial*h
same,D (reduction in the plasma glucose concentration),"up to 3 hours, AUC with normal saline only minus AUC",13.00 % of initial*h

# From patent US7923025B2, “Pharmaceutical composition for oral use with improved absorption” (Astellas Pharma Inc., priority 2003, dated 2011)
